Columns and labels:
L. infantum amastigotes = experiment: Amastigote growth inhibition assay (parasite rescue and transformation, RAW 264.7 macrophages); type: cell-based, Leishmania infantum; conditions: in vitro
Protocol: Compound activity on amastigotes was determined following the parasite rescue and transformation assay ([61]). RAW 264.7 macrophages were seeded in 96-well microtiter plates at 10^5 cells/mL of DMEM supplemented with 10% FBS and 1% penicillin-streptomycin (complete DMEM, DMEMc) in a final volume of 200 µL per well. After an overnight incubation (37°C, 5% CO2) to allow cell adherence, the medium was removed and 10^6 L. infantum promastigotes/mL were added (1:10 macrophage:promastigote ratio) in DMEM supplemented with 2% FBS and 1% penicillin-streptomycin (DMEM 2% FBS). After 24 h, parasites not internalized by macrophages were removed by washing (3×, PBS) and dilutions in DMEM 2% FBS of free or liposome-encapsulated compounds were added. After 48 h, the medium was removed, cells were washed three times with PBS, and 40 µL of 0.05% SDS in complete Schneider’s medium was added; after 40 s, 160 additional µL/well of complete Schneider’s medium was added and plates were incubated at 26°C for another 48 h. Then, resazurin sodium salt was incorporated at a final concentration of 0.00125% and plates were incubated for 24 h more in the same conditions. Afterwards, resorufin fluorescence was measured as above.

[1] = Solubility screen assay (nephelometry); type: physicochemical; conditions: PBS with 1% DMSO; read-out: Aqueous solubility
Protocol: The stock solutions (10^‒2 M) of the assayed compounds were diluted to decreased molarity, from 300 μM to 0.1 µM, in a 384-well transparent plate (Greiner Bio-One, Madrid, Spain) with DMSO:PBS (1:99 vol/vol). After 2 h of incubation at 37°C, the plate was read in a NEPHELOstar Plus nephelometer (BMG LABTECH GmbH, Ortenberg, Germany) at 635 nm. The results were adjusted to a segmented regression to obtain the maximum concentration at which the compounds were soluble.

in vitro = in vitro ADME; conditions: 37°C
Protocol: Plates (96-well Polypropylene Deep Well Plate; Corning Inc., Somerville, MA, US) containing 100 µL of 5 µM compounds in human plasma (Seralab, Granollers, Spain), pooled from healthy donors and extracted in citrate tubes, were incubated at 37°C for different times (0, 60, 120, and 360 min). Then, 300 µL ACN was added to precipitate plasma protein, and the plate was centrifuged at 4000 × g for 60 min at 4°C. For sample quantification, the resulting supernatant was taken and analyzed by ultra performance liquid chromatography with tandem mass spectrometry (UPLC-MS/MS; ACQUITY Xevo TQD UPLC QSM; Waters) in an ACQUITY BEH C18 column (1.7 µm, 2.1 × 50 mm; Waters). As mobile phase (0.6 mL/min flow rate) was used the following gradient of 0.1% formic acid in water (A) or in ACN (B): 95% A:5% B from 0 to 0.1 min, gradual increase to 100% B from 0.1 to 1 min, maintenance in 100% B from 1 to 2 min, return to 95% A:5% B from 2 to 2.1 min, and maintenance of this ratio from 2.1 to 2.5 min. Compound concentrations were calculated from the MS peak areas.

[2] = system: L. infantum promastigote cultures; experiment: Protein aggregation assay in L. infantum cultures (ThT fluorescence); type: cell-based, Leishmania infantum; conditions: 0.15 and 0.3 µM YAT2150, 90 min and 4 h, promastigote culture extracts
Protocol: Ten milliliters of L. infantum promastigote cultures in the logarithmic growth phase at a concentration of 10^7 cells/mL in T-25 flasks (SPL Life Sciences, Pochon, Kyonggi-do, South Korea) was either treated with 0.15 µM or 0.3 µM YAT2150 or left untreated. After 90 min and 4 h of incubation, 1 mL of each culture was washed (3×, 1 mL PBS, 600 × g, 3 min) and the parasite-containing pellets were taken up in 100 µL of 4.5 mg/mL NaCl supplemented with 1× cOmplete protease inhibitor cocktail (Roche, Basel, Switzerland) and incubated overnight at 4°C with gentle stirring. After this time, samples were spun down (2,000 × g, 10 s) and the protein in each supernatant was quantified with the Pierce BCA protein assay kit (Thermo Electron Corporation, Waltham, MA, US). In a 96-well flat bottom black plate (Greiner Bio-One), 2 µg of protein from each supernatant was diluted in a final volume of 100 µL PBS in duplicates. Protein aggregation was measured by the addition of 25 µM ThT to each well, and after a 15-min incubation with gentle stirring, ThT fluorescence emission intensity was measured as detailed above.

SMILES: CCN(CC)c1ccc(/C=C/c2cc[n+](CCCCCCCCCC[n+]3ccc(/C=C/c4ccc(N(CC)CC)cc4)c(C)c3)cc2C)cc1 [YAT2150]
- IC50 (L. infantum amastigotes; L. infantum amastigotes in RAW 264.7 macrophages): 0.51 ± 0.11 µM
- IC50 (L. infantum amastigotes; Leishmania infantum, RAW264.7, L. infantum amastigotes in RAW 264.7 macrophages): ~0.52 µM
- solubility at 2 h [1]: 8.5 µM
- % remaining, plasma stability (in vitro; human plasma, after 6 h): 91.3%
- remaining at 1 h, 5 µM (in vitro; human, plasma, after 1 h, read-out: % remaining, plasma stability): 100%
- remaining at 2 h, 5 µM (in vitro; human, plasma, after 2 h, read-out: % remaining, plasma stability): 99.7%
- remaining at 6 h, 5 µM (in vitro; human, plasma, after 6 h, read-out: % remaining, plasma stability): 91%
- overall aggregation of the parasite's proteins (ThT analysis) [2]: reduced
